Data from US7871978B2, “Bone tropic peptides” (University of Virginia Patent Foundation, priority 2004, dated 2011).

Columns and labels:
[1] = test system: bovine aortic endothelial cells; assay: Effect of peptides on adherent bovine aortic endothelial cells on fibronectin or collagen; assay type: cell-based; details: 0.1M biotinylated peptide, 1 hour; cells adhered four hours on fibronectin or collagen
Description: Peptides from the phage display project were added to bovine aortic endothelial cells in culture. The endothelial cells had adhered to a surface coated with collagen or with fibronectin.
Experiment 1: Bovine aortic endothelial cells were plated on glass slides that were coated either fibronectin or collagen. The cell density was 5,000 cells/well. After the cells adhered for four hours, 0.1M of biotinylated peptide was added to each well. The following peptides were used: L1, L2, L5, L6, L7, L12, L13, L14, L19, R1, R3, and R8.
To perform this experiment, the media was removed and the cells were rinsed with 1×PBS plus 1% BSA three times. Peptides were diluted in 1×PBS plus 1% BSA, added to cells and incubated for 1 hour. The cells were rinsed three times with 1% BSA in PBS, and fixed with 2% parafomaldehyde. Aldehyde groups were blocked with 0.2 M HCl-glycine in PBS, the cells were rinsed three times with 1% BSA in PBS and ExtrAvidin-FITC (1:200 dilution) was added and incubated overnight at 4° C. The cells were rinsed three times with 1% BSA in PBS. The chambers and the gasket were removed from each slide, Vectashield was added, covered and viewed on a Nikon microscope. Images were acquired using a Coolsnap digital camera and Metavue software. […]
Experiment 3: The cells were adherent for about 6 hours and peptides at various concentrations were added to the cells. The concentrations of each of the peptides used in this experiment were: 0.1M, 0.01M, 0.001M and 0.0001M biotinylated peptide. The following peptides were tested: L1, L5, L6, L7, L13, L14, R1, R3, R8, DIP1 and PBS control (SEQ ID NOs:1, 3, 4, 5, 8, 9, 11, 13, 14, and 29).

bone and bone marrow = assay: In vivo biopanning with 12-mer peptide phage display library; parameters: species or system BALB/c mice; details: for PERCENT FREQUENCY: phage eluted from bone and bone marrow; for PHAGE SEQUENCE FREQUENCY (number of times the sequence was found in a group of plaques): phage eluted from bone and bone marrow after repeated rounds
Text: The Ph.D.-12 Phage Display Peptide Library Kit (New England Biolabs, Beverly, Mass.) used in this study is based on a combinatorial library of random peptide 12-mers fused to a minor coat protein (pIII). […] The peptide is followed by a short spacer of four amino acid residues, the first three residues of which are glycine and the fourth of which is serine, and then the wild-type III sequence. The library consists of approximately 2.7×10^9 electroporated sequences, amplified once to yield approximately 55 copies of each sequence.
For in vivo biopanning, BALB/c mice 8 weeks of age were injected 3.4×10^10 pfu of phage into the heart. The animals were euthanized after 5 minutes, and the tissues (bone, bone marrow, kidney, liver, and spleen) were collected for analysis. The bound phage was eluted according the manufacturer's instructions. The eluted phage was titered, amplified, purified, and injected again at the same concentration.
The frequency of each peptide in bone and bone marrow was compared with its location in other tissues such as liver, kidney, lung, spleen, and brain. Thirteen unique peptide sequences eluted from bone and marrow were identified were identified by sequencing phage DNA. The peptides were synthesized using the polystyrene solid support on a Protein Technologies Symphony Multiple Channel Synthesizer.

[2] = test system: Unicortical femoral defects; assay: Peptide-mediated osteogenesis in cortical bone defects (Example 8); assay type: in vivo, Fisher 344 rats; details: 100 mM peptide in gelfoam, two weeks postoperatively; for Effectiveness at stimulating osteogenesis and cortical bone repair: versus gelfoam+PBS
Description: In an in vivo study, all 13 peptides at a concentration of 100 mM were tested for their ability to potentiate osteogenesis. A gelfoam cylinder 1.5 mm in diameter 2 mm in length was used as carrier for the peptides. Unicortical femoral defects 1.5 mm in diameter were created bilaterally in Fisher 344 rats; the left femoral defect was filled with gelfoam+PBS (Control), and the right femur with gelfoam+peptide. The samples were harvested and examined two weeks postoperatively. To examine the effect of peptide concentration on cortical bone regeneration, peptide L7 (SEQ ID NO:5) was used at 1, 5, and 20 mM. […] The time course of cortical bone repair with 20 mM L7 was examined at 5, 10, 15, and 20 days.

LNCaP cells = assay: Prostate cancer cell adhesion to BMEC: LNCaP; assay type: cell-based; details: FIG. 8; preliminary results
Description: (§1) FIG. 8 is a graphic representation of the effects of various peptides on altering cellular adhesion to BMEC cells in vitro. LNCaP cells were compared directly to C4-2 cells for the ability of specific phage-derived peptides to alter cellular adhesion to BMEC cells in vitro. Adhesion was measured at […]. C=control (no peptide). The ordinate represents percent of acid precipitable counts bound and the abscissa indicated the cells treated and the peptides used.
(§2) The phage-derived bone-targeting peptides isolated by biopanning were tested for their ability to alter the adhesion of prostate cancer cells to a human bone marrow endothelial cell line (see FIG. 8). In this assay, LNCaP cells were compared directly to the more metastatic, bone colonizing derivative, C4-2.

C4-2 cells = assay: Prostate cancer cell adhesion to BMEC: C4-2; assay type: cell-based; details: FIG. 8; preliminary results
Description: as §1, §2

[3] = test system: bone and marrow tissue sections (mouse femur, rib); assay: Biotinylated peptide binding to bone/marrow tissue sections, Avidin-FITC fluorescence; parameters: key to Localization of peptide binding: Bone/Marrow (tissue sections): ✓: Check marks indicate positive binding observed with FITC; −: a dash indicates a negative result
Description: Methods: Four-week old Swiss Webster mice were euthanized; the femurs were excised and decalcified in 0.25M EDTA in PBS solution for 5 days, and washed in PBS for 24 hours. The femoral shafts were obtained by cutting off the proximal and distal ends of the femur. The femoral shafts were placed in Tissue-Tek O.C.T. Compound (Sukura Finetek, Torrance, Calif.) and frozen at −20° C. overnight. Sections were cut at 10 μm serially with a cryomicrotome, rinsed with 1% BSA in PBS three times. To block non-specific reaction sections were incubated with Avidin/Biotin Blocking Kit (Vector Laboratories, Inc. Burlingame, Calif.) according to the manufacturer's instructions. Following another rinse with PBS, 150 μl 10 mM solution of each biotinylated peptide (L1, L2, L7, R1, R8) was added to the slides and incubated for 1 hour at room temperature. In negative controls, only PBS was added. After rewashes with 1% BSA, 150 μl of 1:50,000 dilution of Avidin-FITC was added to each slide and incubated overnight at 4° C.
The sections were washed with 1% BSA in PBS and mounted with Vectashield (Vector Laboratories Inc., Burlingame, Calif.). Fluorescence was visualized using a Nikon eclipse E600 microscope (Nikon, Melville, N.Y.) equipped with a 535 nm wavelength fluorescein filter. Images were obtained using a Sony DKC-5000 digital camera (Sony Electronics Inc.) and processed with Adobe Photoshop software (Adobe Systems Incorporated, San Jose, Calif.).
(§3) For localization of peptide binding to cells and tissue sections, biotinylated peptides were synthesized. Fluorescein-isothiocyanate (FITC) labeled Avidin was used to localize the peptides on cells in culture and in tissue sections in vitro by epiluminescence microscopy. In addition, the biotinylated peptides were detected at concentrations as low as 1 μM in slot blots.
Cryosections of decalcified femurs harvested from 4 week BALB/c mice were incubated with biotinylated peptide and Avidin-FITC. […] The distribution of fluorescence throughout the marrow was uneven. […] In control slides incubated with PBS without peptide, none of the cells could be detected by fluorescence (not shown). […]

[4] = test system: prostate cancer cells (CaP); assay: Prostate cancer (CaP) cell adhesion to BMEC, cell line not distinguished; assay type: cell-based; details: 50 μM and 100 μM tested
Description: as §1, §2
This observation will be examined further and exploited by the aims of this proposal to identify the binding partners of nucleolin in prostate cancer cells as well as to investigate bone tropic peptides as potential inhibitors of prostate cancer metastasis.

[5] = test system: human bone marrow endothelial cells (HBME); assay: Peptide binding to HBME cells in culture (Avidin-FITC); parameters: key: ✓: Check marks indicate positive binding observed with FITC; −: a dash indicates a negative result
Description: as §3
(§4) Bone marrow cells isolated from mouse femur were lifted with ethylenediaminetetraacetic acid (EDTA) and trypsin, resuspended, and allowed to attach on fibronectin-coated chamber slides for Avidin-FITC staining. […] The D1 cell is a multipotential mesenchymal stem-like line that was isolated from bone marrow and shown to have the characteristics of osteoprogenitor cells. This cell line has been well established and used successfully in several in vitro and in vivo studies in our laboratory. Peptide binding to human bone marrow endothelial cells (HBME) and bovine aortic endothelial cells (BAEC) in culture was also tested using the same procedure.

[6] = test system: bovine aortic endothelial cells (BAEC); assay: Peptide binding to BAEC in culture (Avidin-FITC); parameters: key: ✓: Check marks indicate positive binding observed with FITC; −: a dash indicates a negative result
Description: as §3, §4

[7] = test system: Bone marrow cells isolated from mouse femur; assay: Peptide binding to bone marrow cells in culture (Avidin-FITC); parameters: key to Localization of peptide binding: Marrow (cells in culture): ✓: Check marks indicate positive binding observed with FITC; −: a dash indicates a negative result
Description: as §3, §4

[8] = test system: Membrane and cytosol fractions from bovine aortic endothelial cells; assay: Affinity chromatography of BAEC fractions on immobilized peptide; assay type: binding
Description: Membrane and cytosol fractions from human bone marrow endothelial cells and bovine aortic endothelial cells were prepared and used to identify the components from within these fractions that bind to the peptides using affinity chromatography). […] Cell surface nucleolin is present at higher concentrations in actively dividing cells and is down regulated in cells when they become quiescent. Nucleolin is the apparent cell surface receptor of E-coli intimin-gamma. Cell bound intimin has been proposed to trigger a host cell response similar to the extension of filipodia when cells bind to laminin. […] Table 3 provides a summary of peptide-binding partners (putative receptors) identified by affinity chromatography of cell lysates.

[9] = BALB/c mouse femur cryosections, biotinylated peptide
[10] = Swiss Webster mouse femur cryosections, 10 mM biotinylated peptide

Row | Substance | Effect on adherent BAEC (Experiment 1) [1] | PERCENT FREQUENCY (bone and bone marrow) [%] | PHAGE SEQUENCE FREQUENCY (number of times the sequence was found in a group of plaques) (bone and bone marrow) | Histological appearance of repair tissue in the defect [2] | Effectiveness at stimulating osteogenesis and cortical bone repair [2] | Effect on adhesion of LNCaP cells to BMEC (LNCaP cells) | Effect on adhesion of C4-2 cells to BMEC (C4-2 cells) | Binding to rib and long bone growth plate sections ([3]; biotinylated peptides, 1/50,000 dilution of Avidin-FITC) | Concentrations at which peptide inhibits prostate cancer cell adhesion to BMEC [4] | Cell shape preferentially recognized by peptide [3, 9] | Extent of marrow cells detected by fluorescence [3, 9] | Localization of peptide binding: Bone/Marrow (tissue sections) ([3]; FITC) | Cell shape preferentially recognized by peptide [3, 10] | Extent of marrow cells detected by fluorescence [3, 10] | Localization of peptide binding: HBME [5] | Localization of peptide binding: BAEC [6] | Localization of peptide binding: Marrow (cells in culture) ([7]; FITC) | Binding to adherent cells from bone marrow blowouts ([7]; fibronectin-coated chamber slides, Avidin-FITC staining) | Binding partner from BAEC lysates ([8]; biotinylated peptide immobilized on avidin-agarose) | Identification of binding partners by affinity chromatography: BAEC ([8]; cell lysates)
1 | ASP-SER-SER-ASN-PRO-ILE-PHE-TRP-ARG-PRO-SER-SER-GLY-GLY-GLY-SER (DSSNPIFWRPSSGGGS; listed as Homo sapiens) [Peptide L19] | no effect, with results similar to PBS | 16.7 | 5/30 | while some ossification and cortical bone regeneration has occurred, considerable amounts of gelfoam remains in the defect | virtually no stimulatory effect on osteogenesis | strongly inhibited the less aggressive LNCaP cell | leaving the adhesion of the C4-2 cell line unaffected |  |  |  |  |  |  |  |  |  |  |  |  | 
2 | ALA-THR-TRP-SER-HIS-HIS-LEU-SER-SER-ALA-GLY-LEU-GLY-GLY-GLY-SER (ATWSHHLSSAGLGGGS; listed as Homo sapiens) [Peptide R3] | the cells had lifted completely and most of the cells disappeared from the surface of the slides, leaving a lot of cell debris | 34.5 | 10/29 |  | most effective at stimulating osteogenesis and cortical bone repair | dose-dependent inhibition of CaP cell invasion for both cell lines | dose-dependent inhibition of CaP cell invasion for both cell lines | no staining | at 100 μM only |  |  |  |  |  |  |  |  |  |  | 
3 | SER-TYR-SER-GLN-MET-ASP-PRO-PRO-ARG-SER-LEU-PRO-GLY-GLY-GLY-SER (SYSQMDPPRSLPGGGS; listed as Homo sapiens) [Peptide R8] |  | 24.1 | 7/29 |  | most effective at stimulating osteogenesis and cortical bone repair |  |  |  |  | recognized the round cells preferentially | did not detect as many cells | ✓ | recognized the round cells preferentially | did not detect as many cells | ✓ | ✓ | ✓ | showed detectable binding | vimentin was found to bind | ✓Vimentin
